According to the supplement of paper PMC10307832:

Experiments:
Assay in all cases: relative viability (nuclei count vs DMSO), 5 days (fraction); higher = more cells survive
Dabrafenib + OSI-027 = compound: CC(C)(C)c1nc(-c2cccc(NS(=O)(=O)c3c(F)cccc3F)c2F)c(-c2ccnc(N)n2)s1 [Dabrafenib] + COc1cccc2cc(-c3nc([C@H]4CC[C@H](C(=O)O)CC4)n4ncnc(N)c34)[nH]c12 [OSI-027] (partner 0.5 µM)
Summary of the method: (§1)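 Each reported value is a median over duplicate plates. It expresses relative viability: treated-well nuclei count divided by vehicle-well nuclei count. Lung cancer cell lines in 1536-well plates were dosed by pin tool a day after seeding, alone with one drug or with a fixed anchor-drug dose plus five library-drug doses (not always all listed) in √10 steps, and nuclei were counted after 5 days.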

Dabrafenib + Linsitinib = compound: CC(C)(C)c1nc(-c2cccc(NS(=O)(=O)c3c(F)cccc3F)c2F)c(-c2ccnc(N)n2)s1 [Dabrafenib] + C[C@]1(O)C[C@@H](c2nc(-c3ccc4ccc(-c5ccccc5)nc4c3)c3c(N)nccn32)C1 [Linsitinib] (partner 1 µM)
Summary of the method: as §1

Dabrafenib + Phenformin = compound: CC(C)(C)c1nc(-c2cccc(NS(=O)(=O)c3c(F)cccc3F)c2F)c(-c2ccnc(N)n2)s1 [Dabrafenib] + N=C(N)NC(=N)NCCc1ccccc1 [Phenformin] (partner 250 µM)
Summary of the method: as §1

VX-702 + Luminespib = compound: NC(=O)c1ccc(N(C(N)=O)c2c(F)cccc2F)nc1-c1ccc(F)cc1F [VX-702] + CCNC(=O)c1noc(-c2cc(C(C)C)c(O)cc2O)c1-c1ccc(CN2CCOCC2)cc1 [Luminespib] (partner 0.01 µM)
Summary of the method: as §1

Cell Line | relative viability (Dabrafenib + OSI-027; first compound 0.003 µM) | relative viability (Dabrafenib + OSI-027; first compound 0.009487 µM) | relative viability (Dabrafenib + OSI-027; first compound 0.03 µM) | relative viability (Dabrafenib + OSI-027; first compound 0.09487 µM) | relative viability (Dabrafenib + OSI-027; first compound 0.3 µM) | relative viability (Dabrafenib + Linsitinib; first compound 0.003 µM) | relative viability (Dabrafenib + Linsitinib; first compound 0.009487 µM) | relative viability (Dabrafenib + Linsitinib; first compound 0.03 µM) | relative viability (Dabrafenib + Linsitinib; first compound 0.09487 µM) | relative viability (Dabrafenib + Linsitinib; first compound 0.3 µM) | relative viability (Dabrafenib + Phenformin; first compound 0.003 µM) | relative viability (Dabrafenib + Phenformin; first compound 0.009487 µM) | relative viability (Dabrafenib + Phenformin; first compound 0.03 µM) | relative viability (Dabrafenib + Phenformin; first compound 0.09487 µM) | relative viability (Dabrafenib + Phenformin; first compound 0.3 µM) | relative viability (VX-702 + Luminespib; first compound 0.02 µM) | relative viability (VX-702 + Luminespib; first compound 0.2 µM) | relative viability (VX-702 + Luminespib; first compound 0.6325 µM) | relative viability (VX-702 + Luminespib; first compound 2 µM)
NCI-H460 | 0.641 | 0.651 | 0.629 | 0.591 | 0.534 | 0.84 | 0.952 | 0.68 | 0.757 | 0.826 | 0.523 | 0.533 | 0.52 | 0.497 | 0.46 | 0.0333 | 0.0359 | 0.0358 | 0.0313
NCI-H520 | 0.272 | 0.348 | 0.188 | 0.324 | 0.278 | 1.01 | 0.93 | 0.741 | 0.853 | 1.05 | 0.431 | 0.638 | 0.289 | 0.442 | 0.612 | 0.189 | 0.245 | 0.221 | 0.239
NCI-H596 | – | 0.976 | 0.63 | 0.658 | 0.886 | 1 | 1.14 | 0.796 | 1.08 | 1.14 | – | 1.11 | 0.65 | 0.687 | 0.748 | 1.05 | 1.1 | 1.01 | 1.11
NCI-H647 | 0.325 | 0.704 | 0.561 | 0.582 | 0.476 | – | 1.04 | 1.21 | 1.17 | 1.01 | 0.129 | 0.521 | 0.418 | 0.486 | 0.458 | 0.216 | 0.478 | 0.143 | 0.17
NCI-H650 | – | 0.578 | 0.427 | 0.331 | 0.301 | – | 1.27 | 0.769 | 0.43 | 0.516 | – | 0.475 | 0.393 | 0.262 | 0.35 | 0.661 | – | 0.78 | 0.961
NCI-H661 | 0.785 | 0.709 | 0.676 | 0.682 | 0.675 | 0.501 | 0.594 | 0.375 | 0.521 | 0.52 | 0.256 | 0.277 | 0.268 | 0.323 | 0.306 | 0.905 | 0.919 | 0.995 | 1.06
NCI-H727 | – | 0.395 | 0.677 | 0.568 | 0.643 | – | 0.312 | 0.29 | 0.367 | 0.465 | – | 0.425 | 0.515 | – | 0.595 | 0.306 | 0.345 | 0.296 | 0.294
NCI-H838 | 0.339 | 0.483 | 0.388 | 0.405 | 0.412 | 0.994 | 1.04 | 0.95 | 0.97 | 1.08 | 0.564 | 0.648 | 0.451 | 0.566 | 0.625 | 0.332 | 0.333 | 0.273 | 0.299
NCI-H1355 | – | 0.477 | 0.34 | 0.416 | 0.44 | – | 0.858 | 0.682 | – | 0.823 | – | 0.487 | 0.414 | 0.4 | 0.459 | 0.72 | 0.632 | 0.729 | 0.76
NCI-H1395 | 0.377 | 0.692 | 0.594 | 0.583 | 0.589 | – | 1.07 | 1.05 | 1.07 | 0.854 | 0.325 | 0.462 | 0.447 | 0.403 | 0.437 | 0.634 | 0.592 | 0.892 | 0.712
NCI-H1437 | 0.926 | 0.849 | 1.04 | 0.922 | 0.878 | 1.03 | 0.989 | 1.07 | 0.974 | 1.07 | 0.2 | 0.3 | 0.259 | 0.3 | 0.4 | 1.17 | 1.14 | 1.14 | 1.4
NCI-H1563 | 0.732 | 0.742 | 0.675 | 0.791 | 0.676 | 1.16 | 1.18 | 1.16 | 1.2 | 1.39 | 0.622 | 0.667 | 0.653 | 0.752 | 0.748 | 0.528 | 0.506 | 0.509 | 0.479
NCI-H1651 | 0.724 | 0.666 | 0.748 | 0.714 | 0.736 | 0.962 | 1.01 | 0.833 | 0.971 | 0.989 | 0.35 | 0.352 | 0.293 | 0.353 | 0.347 | 0.979 | 0.891 | 0.921 | 1.08
NCI-H1666 | 0.805 | 0.869 | 0.833 | 0.797 | 0.968 | 0.841 | – | 0.846 | 1.03 | 0.931 | 0.483 | 0.554 | 0.576 | 0.583 | 0.68 | 0.954 | – | 1.07 | 1.01
NCI-H1734 | – | 0.655 | 0.471 | 0.496 | 0.502 | – | 0.924 | 0.602 | 0.701 | 0.893 | – | 0.302 | 0.388 | 0.389 | 0.362 | 0.225 | 0.228 | 0.173 | 0.203
NCI-H1755 | 0.668 | 0.672 | 0.591 | 0.661 | 0.701 | 0.917 | 0.984 | 0.887 | 0.975 | 0.99 | 0.565 | 0.627 | 0.544 | 0.591 | 0.629 | 0.432 | 0.498 | 0.315 | 0.476
NCI-H1792 | – | 0.749 | 0.618 | 0.737 | 0.753 | – | 0.599 | 0.485 | 0.528 | 0.394 | – | 0.485 | 0.198 | 0.34 | 0.202 | 0.331 | 0.355 | 0.376 | 0.523
NCI-H1793 | – | 0.393 | – | – | 0.309 | 0.832 | 1.53 | 0.702 | 0.781 | 0.914 | – | 0.398 | – | – | 0.39 | 0.165 | 0.217 | 0.213 | 0.192
